In paper PMC4724521 (Phytochemistry, 2015):

Experiments:
[1] = tested on: K. brevis EH; experiment: Inhibition assay of purified EH with fluorescent substrate 5b; format: biochemical, Karenia brevis; details: substrate 5b 100 μM, EH 0.1 mg/ml, 2 min preincubation, pH 7.0, 30 °C
[2] = biological target: Rhodococcus erythropolis LEH; details: ref Arand et al., 2003; cited from earlier work
[3] = tested on: EH activity of K. brevis CFE

Row | SMILES | IC50 [1] | Ki [2] | inhibition of total EH activity (in words) [3]
1 | C[C@H]1O[C@@H]1c1ccccc1 (relative stereo) [trans-β-methylstyrene oxide-, trans-β-methylstyrene oxide] | 14.3 mM | – | –
2 | CC1OC1c1ccccc1 (stereo not drawn) [cis-β-methylstyrene oxide] | 3.05 mM | – | –
3 | CCCC(CCC)C(N)=O [valpromide 8, valpromide] | – | 0.1 mM | only adamantly urea 7 inhibited the total activity
4 | CC1(C)OC1c1ccccc1 (stereo not drawn) [β-dimethylstyrene oxide] | 6.99 mM | – | –
